Measured values: PubChem BioAssay AID248 (DTP/NCI, 2004)
Several values for one entry are separate records, joined by “and”; a condition that tells them apart may be missing. Equal entries are not always repeated. Inconclusive results and toxic doses are left out.

System: L1210 leukemia ip in BDF1 mice, survival T/C
Test: NCI In Vivo Anticancer Drug Screen. Data for tumor model L1210 Leukemia (intraperitoneal) in B6D2F1 (BDF1) mice
Details: higher = longer survival
Method in brief: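 Survival endpoint. Drug-treated group vs vehicle group, expressed as T divided by C. Tumor passaged by transplantation.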

[1] = endpoint: mean survival time, dose: 12.5 mg/kg/injection, schedule: Q01DX009 (ip), vehicle: saline
[2] = endpoint: mean survival time, dose: 100.0 mg/kg/injection, schedule: Q01DX001 (ip), vehicle: saline
[3] = endpoint: mean survival time, dose: 200.0 mg/kg/injection, schedule: Q01DX001 (ip), vehicle: saline
[4] = endpoint: mean survival time, dose: 100.0 mg/kg/injection, schedule: Q01DX001 (ip), vehicle: other
[5] = endpoint: mean survival time, dose: 200.0 mg/kg/injection, schedule: Q01DX001 (ip), vehicle: other
[6] = endpoint: mean survival time, dose: 100.0 mg/kg/injection, schedule: Q04DX003 (ip), vehicle: saline
[7] = endpoint: mean survival time, dose: 200.0 mg/kg/injection, schedule: Q04DX003 (ip), vehicle: saline
[8] = endpoint: mean survival time, dose: 400.0 mg/kg/injection, schedule: Q04DX003 (ip), vehicle: saline
[9] = endpoint: mean survival time, dose: 50.0 mg/kg/injection, schedule: Q01DX001 (ip), vehicle: saline
[10] = endpoint: mean survival time, dose: 100.0 mg/kg/injection, schedule: Q04DX003 (ip), vehicle: saline with Tween-80
[11] = endpoint: mean survival time, dose: 200.0 mg/kg/injection, schedule: Q04DX003 (ip), vehicle: saline with Tween-80
[12] = endpoint: mean survival time, dose: 400.0 mg/kg/injection, schedule: Q04DX003 (ip), vehicle: saline with Tween-80

## COc1ccc([I+]c2ccc(OC)cc2)cc1
endpoint: mean survival time, dose: 0.63 mg/kg/injection, schedule: Q01DX009 (ip), vehicle: water
  T/C: 100 % of control
endpoint: mean survival time, dose: 1.25 mg/kg/injection, schedule: Q01DX009 (ip), vehicle: water
  T/C: 101 % of control
endpoint: mean survival time, dose: 2.5 mg/kg/injection, schedule: Q01DX009 (ip), vehicle: water
  T/C: 105 % of control
endpoint: mean survival time, dose: 2.5 mg/kg/injection, schedule: Q04DX003 (ip), vehicle: water
  T/C: 103 % of control
endpoint: mean survival time, dose: 3.12 mg/kg/injection, schedule: Q01DX009 (ip), vehicle: saline
  T/C: 103 % of control
endpoint: mean survival time, dose: 5.0 mg/kg/injection, schedule: Q04DX003 (ip), vehicle: water
  T/C: 108 % of control
endpoint: mean survival time, dose: 6.25 mg/kg/injection, schedule: Q01DX009 (ip), vehicle: saline
  T/C: 107 % of control
endpoint: mean survival time, dose: 10.0 mg/kg/injection, schedule: Q04DX003 (ip), vehicle: water
  T/C: 101 % of control
[1]
  T/C: 91 % of control
endpoint: mean survival time, dose: 50.0 mg/kg/injection, schedule: Q04DX003 (ip), vehicle: acetone
  T/C: 103 % of control
[2]
  T/C: 111 % of control
endpoint: mean survival time, dose: 100.0 mg/kg/injection, schedule: Q04DX003 (ip), vehicle: acetone
  T/C: 100 % of control
[3]
  T/C: 109 % of control

## CN(/N=N/c1nc[nH]c1C(=O)N/N=C/c1ccc(N(CCCl)CCCl)cc1)C1CCCCC1
[4]
  T/C: 95 % of control
[5]
  T/C: 95 % of control
endpoint: mean survival time, dose: 400.0 mg/kg/injection, schedule: Q01DX001 (ip), vehicle: other
  T/C: 90 % of control

## CCCCCCCNc1ccc(C(=O)O)cc1
endpoint: mean survival time, dose: 37.5 mg/kg/injection, schedule: Q01DX009 (ip), vehicle: saline
  T/C: 105 % of control
endpoint: mean survival time, dose: 75.0 mg/kg/injection, schedule: Q01DX001 (ip), vehicle: saline
  T/C: 93 % of control
endpoint: mean survival time, dose: 75.0 mg/kg/injection, schedule: Q01DX009 (ip), vehicle: saline
  T/C: 94 % of control
endpoint: mean survival time, dose: 75.0 mg/kg/injection, schedule: Q04DX003 (ip), vehicle: saline
  T/C: 105 % of control
endpoint: mean survival time, dose: 150.0 mg/kg/injection, schedule: Q01DX001 (ip), vehicle: saline
  T/C: 104 % of control
endpoint: mean survival time, dose: 150.0 mg/kg/injection, schedule: Q01DX009 (ip), vehicle: saline
  T/C: 98 % of control
endpoint: mean survival time, dose: 150.0 mg/kg/injection, schedule: Q04DX003 (ip), vehicle: saline
  T/C: 109 % of control
endpoint: mean survival time, dose: 300.0 mg/kg/injection, schedule: Q01DX001 (ip), vehicle: saline
  T/C: 102 % of control
endpoint: mean survival time, dose: 300.0 mg/kg/injection, schedule: Q04DX003 (ip), vehicle: saline
  T/C: 102 % of control

## NNC(=O)CCCCCC(=O)NN
endpoint: mean survival time, dose: 100.0 mg/kg/injection, schedule: Q01DX009 (ip), vehicle: saline
  T/C: 93 % of control
[6]
  T/C: 94 % of control
endpoint: mean survival time, dose: 200.0 mg/kg/injection, schedule: Q01DX009 (ip), vehicle: saline
  T/C: 95 % of control
[7]
  T/C: 96 % of control
endpoint: mean survival time, dose: 400.0 mg/kg/injection, schedule: Q01DX009 (ip), vehicle: saline
  T/C: 106 % of control
[8]
  T/C: 102 % of control

## N=c1nc2n(cc1F)C1OC(CO)C(O)C1O2 (configuration not stated)
endpoint: median survival time, dose: 200.0 mg/kg/injection, schedule: Q01DX005 (ip), vehicle: other
  T/C: 163 % of control
endpoint: median survival time, dose: 400.0 mg/kg/injection, schedule: Q01DX005 (ip), vehicle: other
  T/C: 163 % of control

## N=C(N)c1cccc(NC(=O)c2cccc(C(=O)Nc3cccc(C(=N)N)c3)c2)c1
endpoint: mean survival time, dose: 15.0 mg/kg/injection, schedule: Q01DX Z (ip), vehicle: saline
  T/C: 95 % of control
endpoint: mean survival time, dose: 30.0 mg/kg/injection, schedule: Q01DX Z (ip), vehicle: saline
  T/C: 98 % of control
endpoint: mean survival time, dose: 60.0 mg/kg/injection, schedule: Q01DX Z (ip), vehicle: saline
  T/C: 98 % of control
endpoint: mean survival time, dose: 120.0 mg/kg/injection, schedule: Q01DX Z (ip), vehicle: saline
  T/C: 93 % of control
endpoint: mean survival time, dose: 125.0 mg/kg/injection, schedule: Q01DX Z (ip), vehicle: water
  T/C: 96 % of control
endpoint: mean survival time, dose: 250.0 mg/kg/injection, schedule: Q01DX Z (ip), vehicle: water
  T/C: 98 % of control
endpoint: mean survival time, dose: 500.0 mg/kg/injection, schedule: Q01DX Z (ip), vehicle: water
  T/C: 104 % of control

## CCCCCCCCCCCCCCCCNCC(=O)Nc1ccc(S(=O)(=O)c2ccc(NC(=O)CNCCCCCCCCCCCCCCCC)cc2)cc1
endpoint: mean survival time, dose: 4.0 mg/kg/injection, schedule: Q01DX015 (ip), vehicle: carboxymethylcellulose (CMC)
  T/C: 94 % of control
endpoint: mean survival time, dose: 8.0 mg/kg/injection, schedule: Q01DX015 (ip), vehicle: carboxymethylcellulose (CMC)
  T/C: 94 % of control
endpoint: mean survival time, dose: 16.0 mg/kg/injection, schedule: Q01DX015 (ip), vehicle: carboxymethylcellulose (CMC)
  T/C: 104 % of control
endpoint: mean survival time, dose: 32.0 mg/kg/injection, schedule: Q01DX015 (ip), vehicle: carboxymethylcellulose (CMC)
  T/C: 93 % of control and 101 % of control
endpoint: mean survival time, dose: 64.0 mg/kg/injection, schedule: Q01DX015 (ip), vehicle: carboxymethylcellulose (CMC)
  T/C: 117 % of control
[4]
  T/C: 89 % of control
[5]
  T/C: 100 % of control

## CCCC(=O)OCC1OC(n2cc(C)c(=O)[nH]c2=O)CC1OC(=O)CCC (configuration not stated)
endpoint: mean survival time, dose: 100.0 mg/kg/injection, schedule: Q01DX001 (ip), vehicle: carboxymethylcellulose (CMC)
  T/C: 104 % of control
endpoint: mean survival time, dose: 200.0 mg/kg/injection, schedule: Q01DX001 (ip), vehicle: carboxymethylcellulose (CMC)
  T/C: 93 % of control

## Oc1ccc(/C=N/Nc2nnc(N/N=C/c3ccc(O)c(O)c3)c3ccccc23)cc1O
[9]
  T/C: 97 % of control
[2]
  T/C: 92 % of control
[3]
  T/C: 97 % of control
endpoint: mean survival time, dose: 400.0 mg/kg/injection, schedule: Q01DX001 (ip), vehicle: saline
  T/C: 97 % of control

## COc1ccc(COc2ccc(Cl)cc2)cc1OC
[10]
  T/C: 109 % of control
[11]
  T/C: 98 % of control
[12]
  T/C: 101 % of control

## CC(=O)N(N=O)c1c(C)cccc1C
[9]
  T/C: 102 % of control
[2]
  T/C: 105 % of control

## Cc1cc(C)[s+]s1
[1]
  T/C: 94 % of control
endpoint: mean survival time, dose: 25.0 mg/kg/injection, schedule: Q01DX009 (ip), vehicle: saline
  T/C: 100 % of control
endpoint: mean survival time, dose: 50.0 mg/kg/injection, schedule: Q01DX009 (ip), vehicle: saline
  T/C: 103 % of control and 91 % of control
[6]
  T/C: 106 % of control
[7]
  T/C: 97 % of control

## Clc1ccc(Sc2ncnc3nc[nH]c23)cc1
[10]
  T/C: 102 % of control
[11]
  T/C: 100 % of control
[12]
  T/C: 105 % of control

## COC(=O)C(C)NC(=O)C1CSC(C)(C)N1C=O (configuration not stated)
[6]
  T/C: 101 % of control
[7]
  T/C: 95 % of control
[8]
  T/C: 95 % of control

## CC12CC3CC(C)(C1)CC(CN=C(N)CS)(C3)C2
endpoint: mean survival time, dose: 2.5 mg/kg/injection, schedule: Q01DX009 (ip), vehicle: Klucel (hydroxypropylcellulose) (HPC)
  T/C: 109 % of control
endpoint: mean survival time, dose: 2.5 mg/kg/injection, schedule: Q04DX002 (ip), vehicle: Klucel (hydroxypropylcellulose) (HPC)
  T/C: 96 % of control
endpoint: mean survival time, dose: 5.0 mg/kg/injection, schedule: Q01DX009 (ip), vehicle: Klucel (hydroxypropylcellulose) (HPC)
  T/C: 114 % of control
endpoint: mean survival time, dose: 5.0 mg/kg/injection, schedule: Q04DX002 (ip), vehicle: Klucel (hydroxypropylcellulose) (HPC)
  T/C: 101 % of control
endpoint: mean survival time, dose: 10.0 mg/kg/injection, schedule: Q01DX009 (ip), vehicle: Klucel (hydroxypropylcellulose) (HPC)
  T/C: 111 % of control
endpoint: mean survival time, dose: 10.0 mg/kg/injection, schedule: Q04DX002 (ip), vehicle: Klucel (hydroxypropylcellulose) (HPC)
  T/C: 102 % of control

## C#Cc1ccc([N+](=O)[O-])cc1
endpoint: mean survival time, dose: 100.0 mg/kg/injection, schedule: Q01DX009 (ip), vehicle: Klucel (hydroxypropylcellulose) (HPC)
  T/C: 95 % of control
endpoint: mean survival time, dose: 100.0 mg/kg/injection, schedule: Q04DX003 (ip), vehicle: Klucel (hydroxypropylcellulose) (HPC)
  T/C: 88 % of control
endpoint: mean survival time, dose: 200.0 mg/kg/injection, schedule: Q01DX009 (ip), vehicle: Klucel (hydroxypropylcellulose) (HPC)
  T/C: 94 % of control
endpoint: mean survival time, dose: 200.0 mg/kg/injection, schedule: Q04DX003 (ip), vehicle: Klucel (hydroxypropylcellulose) (HPC)
  T/C: 91 % of control
endpoint: mean survival time, dose: 400.0 mg/kg/injection, schedule: Q01DX009 (ip), vehicle: Klucel (hydroxypropylcellulose) (HPC)
  T/C: 95 % of control
endpoint: mean survival time, dose: 400.0 mg/kg/injection, schedule: Q04DX003 (ip), vehicle: Klucel (hydroxypropylcellulose) (HPC)
  T/C: 93 % of control

## CC(C)(C)C1(C)OCCCO1
endpoint: mean survival time, dose: 100.0 mg/kg/injection, schedule: Q04DX002 (ip), vehicle: saline with Tween-80
  T/C: 101 % of control
endpoint: mean survival time, dose: 200.0 mg/kg/injection, schedule: Q04DX002 (ip), vehicle: saline with Tween-80
  T/C: 108 % of control
endpoint: mean survival time, dose: 400.0 mg/kg/injection, schedule: Q04DX002 (ip), vehicle: saline with Tween-80
  T/C: 87 % of control

## [C-]#[N+]C(C)(c1ccccc1)c1ccccc1
endpoint: mean survival time, dose: 12.5 mg/kg/injection, schedule: Q01DX001 (ip), vehicle: acetone
  T/C: 92 % of control
endpoint: mean survival time, dose: 25.0 mg/kg/injection, schedule: Q01DX001 (ip), vehicle: acetone
  T/C: 95 % of control
endpoint: mean survival time, dose: 50.0 mg/kg/injection, schedule: Q01DX001 (ip), vehicle: acetone
  T/C: 110 % of control
